Laboratory results as given in ChEMBL document CHEMBL1201862, “PubChem BioAssay data set” (2004).
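Each compound was tested at five concentrations against cells in 96-well plates for 48 hours. At the GI50, growth is halved.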 Active and inactive are the calls of the source. No stated cut-off is given here; in the data, active = GI50 up to about 1.1 µM and inactive = higher.

Legend:
Experiment in all cases: DTP human tumour cell line panel, 48 h
[1] = test system: A498
[2] = test system: ACHN
[3] = test system: CAKI-1
[4] = test system: CCRF-CEM
[5] = test system: DU-145
[6] = test system: HCC 2998
[7] = test system: HOP-92
[8] = test system: K562
[9] = test system: MCF7
[10] = test system: MDA-MB-231
[11] = test system: NCI-H23
[12] = test system: OVCAR-3
[13] = test system: OVCAR-8
[14] = test system: SF-268
[15] = test system: SW-620
[16] = test system: TK-10
[17] = test system: UACC-257
[18] = test system: EKVX
[19] = test system: SN12C
[20] = test system: SR

| Structure (SMILES) | GI50 [1] | GI50 [2] | GI50 [3] | GI50 [4] | GI50 [5] | GI50 [6] | GI50 [7] | GI50 [8] | GI50 [9] | GI50 [10] | GI50 [11] | GI50 [12] | GI50 [13] | GI50 [14] | GI50 [15] | GI50 [16] | GI50 [17] | GI50 [18] | GI50 [19] | GI50 [20] |
| --- | --- | --- | --- | --- | --- | --- | --- | --- | --- | --- | --- | --- | --- | --- | --- | --- | --- | --- | --- | --- |
| COc1ccc(OC)c2c1C(=O)C(O)=C(Cl)C2=O | > 100 µM (inactive) | > 100 µM (inactive) | > 100 µM (inactive) | > 100 µM (inactive) | > 100 µM (inactive) | > 100 µM (inactive) | > 100 µM (inactive) | > 100 µM (inactive) | > 100 µM (inactive) | > 100 µM (inactive) | > 100 µM (inactive) | > 100 µM (inactive) | > 100 µM (inactive) | > 100 µM (inactive) | > 100 µM (inactive) | > 100 µM (inactive) | > 100 µM (inactive) | – | – | – |
| CSC1=NS(=O)(=O)c2cc(C(=O)NN(C)C(=O)c3cc4c(cc3Cl)SC(SC)=NS4(=O)=O)c(Cl)cc2S1 | > 10 µM (inactive) | > 10 µM (inactive) | > 10 µM (inactive) | > 10 µM (inactive) | > 10 µM (inactive) | > 10 µM (inactive) | > 10 µM (inactive) | > 10 µM (inactive) | 9.75 µM (inactive) | – | > 10 µM (inactive) | > 10 µM (inactive) | > 10 µM (inactive) | > 10 µM (inactive) | > 10 µM (inactive) | > 10 µM (inactive) | > 10 µM (inactive) | > 10 µM (inactive) | > 10 µM (inactive) | > 10 µM (inactive) |
| O=C1Nc2c(Cl)cc(Cl)cc2/C1=N/NC(=O)c1ccncc1 | > 100 µM (inactive) | 38 µM (inactive) | 18.4 µM (inactive) | 29.4 µM (inactive) | – | 44.1 µM (inactive) | 33.2 µM (inactive) | 27.9 µM (inactive) | 32.9 µM (inactive) | 17.3 µM (inactive) | 22.8 µM (inactive) | 15.5 µM (inactive) | 20.6 µM (inactive) | – | 28.4 µM (inactive) | 73.1 µM (inactive) | 19.6 µM (inactive) | 28.5 µM (inactive) | 26.2 µM (inactive) | 14.7 µM (inactive) |
| Cc1ccc(S(=O)(=O)C2=Cc3ccccc3C2(O)c2ccccc2)cc1 (stereo not given) | > 10 µM (inactive) | 34.3 µM (inactive) | – | 15.7 µM (inactive) | 34.8 µM (inactive) | 10.4 µM (inactive) | – | 25.1 µM (inactive) | – | 17.7 µM (inactive) | 37.2 µM (inactive) | – | 22.8 µM (inactive) | 27.2 µM (inactive) | 29.8 µM (inactive) | 35.3 µM (inactive) | > 10 µM (inactive) | 24.9 µM (inactive) | 17.4 µM (inactive) | 22.2 µM (inactive) |
| Cc1cc(C)c2c(c1)N[S@@](=O)S2 | > 100 µM (inactive) | 23.4 µM (inactive) | 25.2 µM (inactive) | 21.9 µM (inactive) | – | 39.6 µM (inactive) | 45.8 µM (inactive) | 26.4 µM (inactive) | – | – | 35.4 µM (inactive) | 18.3 µM (inactive) | 17.7 µM (inactive) | 17.9 µM (inactive) | 3.74 µM (inactive) | 30.4 µM (inactive) | 16.6 µM (inactive) | 51.5 µM (inactive) | 19.4 µM (inactive) | 36.2 µM (inactive) |
| O=C1CCCc2cc3c(cc21)CC1(Cc2ccccc2C1)C3 | 9.12 µM (inactive) | 4.55 µM (inactive) | – | – | – | 16.1 µM (inactive) | 10.8 µM (inactive) | 1.86 µM (inactive) | 3.9 µM (inactive) | 8.18 µM (inactive) | 6.78 µM (inactive) | 2.56 µM (inactive) | 6.28 µM (inactive) | – | – | 7.16 µM (inactive) | 3.48 µM (inactive) | 9.14 µM (inactive) | 4.52 µM (inactive) | – |
| OC(CCN1CCN(CCOC(c2ccccc2)c2ccccc2)CC1)c1ccccc1 (stereo not given) | 2.4 µM (inactive) | 27 µM (inactive) | 32 µM (inactive) | 27.7 µM (inactive) | 39.7 µM (inactive) | 14.8 µM (inactive) | 22.5 µM (inactive) | – | 22.4 µM (inactive) | 15.9 µM (inactive) | 24.7 µM (inactive) | 25.6 µM (inactive) | 17.7 µM (inactive) | 22.8 µM (inactive) | 31.1 µM (inactive) | 22.3 µM (inactive) | 17.9 µM (inactive) | 19.7 µM (inactive) | 29.1 µM (inactive) | – |
| CN(C)/C=C/c1nnc([N+](=O)[O-])s1 | 32 µM (inactive) | 15.5 µM (inactive) | 18.2 µM (inactive) | – | 15.2 µM (inactive) | 17.3 µM (inactive) | – | – | 2.17 µM (inactive) | 18.2 µM (inactive) | 19.3 µM (inactive) | 2.65 µM (inactive) | 17.1 µM (inactive) | 14.6 µM (inactive) | 16.8 µM (inactive) | 25.9 µM (inactive) | 14.2 µM (inactive) | – | 18.8 µM (inactive) | – |
| CCOC(=O)N1C2C=C(C)C(C3C(C)C(=O)N31)N(C(=O)c1ccccc1)O2 (stereo not given) | > 100 µM (inactive) | > 100 µM (inactive) | > 100 µM (inactive) | > 100 µM (inactive) | – | > 100 µM (inactive) | > 100 µM (inactive) | > 100 µM (inactive) | – | – | > 100 µM (inactive) | > 100 µM (inactive) | > 100 µM (inactive) | > 100 µM (inactive) | > 100 µM (inactive) | > 100 µM (inactive) | > 100 µM (inactive) | > 100 µM (inactive) | > 100 µM (inactive) | > 100 µM (inactive) |
| Cc1ccc(S(=O)(=O)N2CCSCCN(S(=O)(=O)c3ccc(C)cc3)CCN(S(=O)(=O)c3ccc(C)cc3)CC2)cc1 | 69.7 µM (inactive) | – | – | > 100 µM (inactive) | > 100 µM (inactive) | > 100 µM (inactive) | 0.184 µM (active) | > 100 µM (inactive) | 59.7 µM (inactive) | 17.4 µM (inactive) | 79.4 µM (inactive) | > 100 µM (inactive) | 37.8 µM (inactive) | 16.7 µM (inactive) | > 100 µM (inactive) | – | – | 47.5 µM (inactive) | > 100 µM (inactive) | – |
| CC1=C[C@@H]2Cc3nc4cc(Cl)ccc4c(N)c3[C@H](C1)C2 | 11.2 µM (inactive) | 10.6 µM (inactive) | 3.89 µM (inactive) | 12.2 µM (inactive) | 12.9 µM (inactive) | – | 0.685 µM (active) | 2.71 µM (inactive) | 10 µM (inactive) | 11.6 µM (inactive) | 8.22 µM (inactive) | 10.4 µM (inactive) | 15.3 µM (inactive) | 12.5 µM (inactive) | 11 µM (inactive) | 5.78 µM (inactive) | 2.02 µM (inactive) | 3.32 µM (inactive) | 12.4 µM (inactive) | – |
| COC(=O)[C@H](Cc1ccccc1)NC(=O)N(CCC#N)CCCCN(CCC#N)C(=O)N[C@@H](Cc1ccccc1)C(=O)OC | > 100 µM (inactive) | > 100 µM (inactive) | > 100 µM (inactive) | – | > 100 µM (inactive) | > 100 µM (inactive) | > 100 µM (inactive) | > 100 µM (inactive) | > 100 µM (inactive) | > 100 µM (inactive) | > 100 µM (inactive) | > 100 µM (inactive) | > 100 µM (inactive) | > 100 µM (inactive) | > 100 µM (inactive) | > 100 µM (inactive) | > 100 µM (inactive) | > 100 µM (inactive) | > 100 µM (inactive) | – |
| COc1ccc(CCN(C)C(=O)CC(C#N)(c2ccccc2)c2ccc(OC)c(OC)c2)cc1OC (stereo not given) | > 100 µM (inactive) | > 100 µM (inactive) | > 100 µM (inactive) | > 100 µM (inactive) | > 100 µM (inactive) | – | 3.15 µM (inactive) | > 42.2 µM (inactive) | > 100 µM (inactive) | – | > 100 µM (inactive) | > 100 µM (inactive) | > 100 µM (inactive) | > 100 µM (inactive) | > 100 µM (inactive) | > 100 µM (inactive) | > 100 µM (inactive) | > 100 µM (inactive) | > 100 µM (inactive) | – |
| COC(=O)Cc1nc2ccccc2o1 | > 100 µM (inactive) | 41.7 µM (inactive) | 37.9 µM (inactive) | 44.3 µM (inactive) | – | 88.5 µM (inactive) | > 100 µM (inactive) | 32.4 µM (inactive) | – | – | > 100 µM (inactive) | 69 µM (inactive) | 55.5 µM (inactive) | > 100 µM (inactive) | 95.1 µM (inactive) | 46.2 µM (inactive) | 47 µM (inactive) | > 100 µM (inactive) | > 100 µM (inactive) | > 100 µM (inactive) |
| CC1C=CC(O)[C@]2(CO)CC3(CCC12)OCCO3 (stereo not given in full) | > 100 µM (inactive) | > 100 µM (inactive) | > 100 µM (inactive) | > 100 µM (inactive) | – | > 100 µM (inactive) | > 100 µM (inactive) | > 100 µM (inactive) | – | – | > 100 µM (inactive) | > 100 µM (inactive) | > 100 µM (inactive) | > 100 µM (inactive) | > 100 µM (inactive) | > 100 µM (inactive) | > 100 µM (inactive) | > 100 µM (inactive) | > 100 µM (inactive) | > 100 µM (inactive) |
| O=C(CC(=O)c1ccccc1)c1ccccc1.O=C(CC(=O)c1ccccc1)c1ccccc1.O=C(CC(=O)c1ccccc1)c1ccccc1.[SiH4] | 10.6 µM (inactive) | 3.63 µM (inactive) | 4.92 µM (inactive) | 1.14 µM (inactive) | – | 3.6 µM (inactive) | 4.57 µM (inactive) | 3.88 µM (inactive) | – | – | 3.15 µM (inactive) | 2.42 µM (inactive) | 3.47 µM (inactive) | 3.37 µM (inactive) | 4.15 µM (inactive) | 5.97 µM (inactive) | 9.42 µM (inactive) | 6.65 µM (inactive) | 3.95 µM (inactive) | 3.57 µM (inactive) |
